Experiment: molar heat capacity at constant pressure; wn = mass fraction of the nth substance listed
Conditions: Small (less than 1 g) adiabatic calorimetry

CCCCn1cc[n+](C)c1.[Br-] [1-butyl-3-methylimidazolium bromide] + O
Crystal
Conditions | molar heat capacity at constant pressure [J/K/mol]
116.06 K, w2 = 0.00482 | 120.61
117.04 K, w2 = 0.0495 | 86.65
117.63 K, w2 = 0.0169 | 109.39
117.68 K, w2 = 0.0051 | 121.3
118.63 K, w2 = 0.00482 | 121.93
119.66 K, w2 = 0.0169 | 110.42
119.84 K, w2 = 0.0495 | 87.83
120.23 K, w2 = 0.0051 | 122.75
121.18 K, w2 = 0.00482 | 123.35
121.69 K, w2 = 0.0169 | 111.46
122.66 K, w2 = 0.0495 | 89.01
122.78 K, w2 = 0.0051 | 124.09
123.73 K, w2 = 0.0169 | 112.39
123.74 K, w2 = 0.00482 | 124.71
125.34 K, w2 = 0.0051 | 125.46
125.48 K, w2 = 0.0495 | 90.15
125.77 K, w2 = 0.0169 | 113.34
126.3 K, w2 = 0.00482 | 126.04
127.81 K, w2 = 0.0169 | 114.42
127.91 K, w2 = 0.0051 | 126.77
128.32 K, w2 = 0.0495 | 91.34
128.86 K, w2 = 0.00482 | 127.4
129.85 K, w2 = 0.0169 | 115.33
130.48 K, w2 = 0.0051 | 128.21
131.16 K, w2 = 0.0495 | 92.52
131.42 K, w2 = 0.00482 | 128.75
131.9 K, w2 = 0.0169 | 116.36
133.06 K, w2 = 0.0051 | 129.58
133.95 K, w2 = 0.0169 | 117.4
134 K, w2 = 0.00482 | 130.13
134 K, w2 = 0.0495 | 93.65
135.64 K, w2 = 0.0051 | 131
136 K, w2 = 0.0169 | 118.35
136.57 K, w2 = 0.00482 | 131.47
136.85 K, w2 = 0.0495 | 94.81
138.05 K, w2 = 0.0169 | 119.43
139.14 K, w2 = 0.00482 | 132.79
139.19 K, w2 = 0.0051 | 132.51
139.7 K, w2 = 0.0495 | 95.99
140.1 K, w2 = 0.0169 | 120.24
141.87 K, w2 = 0.0051 | 133.88
142.16 K, w2 = 0.0169 | 121.29
142.55 K, w2 = 0.0495 | 97.17
143.39 K, w2 = 0.00482 | 135
144.23 K, w2 = 0.0169 | 122.36
144.46 K, w2 = 0.0051 | 135.42
145.41 K, w2 = 0.0495 | 98.38
145.73 K, w2 = 0.00482 | 136.26
146.29 K, w2 = 0.0169 | 123.43
147.05 K, w2 = 0.0051 | 136.72
148.27 K, w2 = 0.0495 | 99.58
148.31 K, w2 = 0.00482 | 137.61
148.35 K, w2 = 0.0169 | 124.38
149.65 K, w2 = 0.0051 | 138.06
150.42 K, w2 = 0.0169 | 125.3
150.89 K, w2 = 0.00482 | 138.87
151.13 K, w2 = 0.0495 | 100.83
152.25 K, w2 = 0.0051 | 139.46
152.48 K, w2 = 0.0169 | 126.38

101.3 kPa, Glass, w2 = 0.00482
Conditions | molar heat capacity at constant pressure [J/K/mol]
117.23 K | 128.48
119.76 K | 130.09
122.3 K | 131.74
124.85 K | 133.4
127.39 K | 135.01
129.94 K | 136.58
132.49 K | 138.2
135.04 K | 139.78
137.59 K | 141.4
140.15 K | 142.95
142.71 K | 144.57
145.27 K | 146.31
147.83 K | 147.89
150.39 K | 149.45

Source: the NIST ThermoML archive (doi:10.1016/j.jct.2006.05.008)
